PMC11846289, “New tetrahydroisoquinolines bearing nitrophenyl group targeting HSP90 and RET enzymes: synthesis, characterization and biological evaluation” (BMC Chemistry, 2025)
≈ marks a conversion by molar mass, not a printed value.

Tests used:
[1] = system: H460 (human lung carcinoma); experiment: one spot 100 µg/ml cytotoxicity, H460; format: cell-based; conditions: Homo sapiens, NCI-H460, percent inhibition, read-out: one spot concentration inhibition, H460
[2] = system: MCF7 cell line; experiment: MTT in vitro cytotoxicity, MCF7; format: cell-based, human; conditions: for Selectivity Index = IC50 of HSF/ IC50 of MCF7: HSF vs MCF7; for IC50: Homo sapiens, MTT, MCF7, read-out: IC50 for MCF7 ± S.D
Description: (§1) Using the MTT test method, the in vitro cytotoxicity of our synthesized compounds at different doses ranging from […] was examined in two cell lines, HEPG2 and MCF7, to examine 50% of the cancer cells dying.
(§2) Some of the synthesized compounds were tested as anticancer activity for the IC50 against two cell lines HEPG2 and MCF7 cells according to method. All cell lines were obtained from national cancer institute, Cairo—Egypt.

[3] = system: HUH7 (human liver carcinoma); experiment: one spot 100 µg/ml cytotoxicity, HUH7; format: cell-based; conditions: Homo sapiens, Huh-7, percent inhibition, read-out: one spot concentration inhibition, HUH7
[4] = system: HSF; experiment: IC50 against normal cell line HSF; format: cell-based, human; conditions: Homo sapiens; normal skin cell line HSF; read-out: IC50 FOR HSF ± S.D.
[5] = system: MCF7 (human breast carcinoma); experiment: one spot 100 µg/ml cytotoxicity, MCF7; format: cell-based; conditions: Homo sapiens, MCF7, percent inhibition, read-out: one spot concentration inhibition, MCF7
[6] = system: HEPG2 cell line; experiment: MTT in vitro cytotoxicity, HEPG2; format: cell-based, human; conditions: for Selectivity Index = IC50 of HSF/IC50 of HEPG2: HSF vs HEPG2; for IC50: Homo sapiens, MTT, HEPG2, read-out: IC50 for HEPG2 ± S.D
Description: as §1, §2

[7] = system: HEPG2 (human liver carcinoma); experiment: one spot 100 µg/ml cytotoxicity, HEPG2; format: cell-based; conditions: Homo sapiens, HepG2, percent inhibition, read-out: one spot concentration inhibition, HEPG2
[8] = system: HCT116 (colon carcinoma human); experiment: one spot 100 µg/ml cytotoxicity, HCT116; format: cell-based; conditions: Homo sapiens, HCT-116, percent inhibition, read-out: one spot concentration inhibition, HCT116
[9] = system: normal human skin cell line (HSF); experiment: one spot 100 µg/ml cytotoxicity, normal skin cell line HSF; format: cell-based; conditions: Homo sapiens; for cytotoxicity at 100 µg/mL: HSF, one spot 100 µg/ml, read-out: Inhibition percent of HSF cell line; for inhibition at 100 µg/mL: supplement Table S1, read-out: one spot concentration inhibition, HSF
[10] = system: MG-63 (human osteosarcoma); experiment: one spot 100 µg/ml cytotoxicity, MG-63; format: cell-based; conditions: Homo sapiens, MG-63, percent inhibition, read-out: one spot concentration inhibition, MG-63
[11] = system: CACO2 (colon carcinoma human); experiment: one spot 100 µg/ml cytotoxicity, CACO2; format: cell-based; conditions: Homo sapiens, Caco-2, percent inhibition, read-out: one spot concentration inhibition, CACO2
[12] = system: A549 (human lung carcinoma); experiment: one spot 100 µg/ml cytotoxicity, A549; format: cell-based; conditions: Homo sapiens, A549, percent inhibition, read-out: one spot concentration inhibition, A549

Structure (SMILES)	inhibition at 100 µg/mL [1]	Selectivity Index = IC50 of HSF/ IC50 of MCF7 [2]	Selectivity Index = IC50 of HSF/ IC50 of MCF7 ([2]; listed as 8B)	IC50 [2]	inhibition at 100 µg/mL [3]	IC50 [4]	inhibition at 100 µg/mL [5]	Selectivity Index = IC50 of HSF/IC50 of HEPG2 [6]	IC50 [6]	inhibition at 100 µg/mL [7]	inhibition at 100 µg/mL [8]	cytotoxicity at 100 µg/mL [9]	inhibition at 100 µg/mL [9]	inhibition at 100 µg/mL [10]	inhibition at 100 µg/mL [11]	inhibition at 100 µg/mL [12]
CC(=O)C1C(c2ccc([N+](=O)[O-])cc2)c2c(C)nc(SCC(=O)Nc3cccc4ccccc34)c(C#N)c2CC1(C)O (centres unmarked) [Compound 8b, 2-[(7-Acetyl-4-cyano-1,6-dimethyl-6-hydroxy-8-(4-nitrophenyl)−5,6,7,8-tetrahydro-isoquinolin-3-yl)thio]-N-(naphthalen-1-yl)acetamide]	62%	> 2	8.3	12 ± 0.056 µg/mL (≈ 20.7 µM)	30.2%	100 µg/mL (≈ 172 µM)	57.2%	1.1	94 ± 0.82 µg/mL (≈ 162 µM)	66.6%	67.5%	50%	48.2%	57.5%	41.7%	15.2%
CC(=O)C1C(c2ccc([N+](=O)[O-])cc2)c2c(C)nc3sc(C(=O)Nc4cccc5ccccc45)c(N)c3c2CC1(C)O (centres unmarked) [Compound 9b, 7-Acetyl-1-amino-N-(naphthalen-1-yl)−5,8-dimethyl-8-hydroxy-6-(4-Nitrophenyl)−6,7,8,9-tetrahydrothieno[2,3-c]isoquinoline-2-carboxamide]	58%	1.1	–	80 ± 0.05 µg/mL (≈ 138 µM)	35.7%	86 µg/mL (≈ 148 µM)	55.2%	0.98	87 ± 0.61 µg/mL (≈ 150 µM)	70%	55.6%	58%	56.2%	30.2%	51.7%	45%
CC(=O)C1C(c2cccc([N+](=O)[O-])c2)c2c(C)nc3sc(C(=O)Nc4nc5ccccc5s4)c(N)c3c2CC1(C)O (centres unmarked) [Compound 10, 7-Acetyl-1-amino-N-(benzthiazol-2-yl)−5,8-dimethyl-8-hydroxy-6-(3-nitrophenyl)−6,7,8,9-tetrahydrothieno[2,3-c]isoquinoline-2-carboxamide]	63.3%	–	–	> 100 µg/mL	21.8%	89 µg/mL (≈ 151 µM)	75.4%	–	> 100 µg/mL	55.2%	59.2%	56%	54.7%	46.7%	60.6%	47.4%
COc1cccc2c1C(=O)c1c(O)c3c(c(O)c1C2=O)C[C@@](O)(C(=O)CO)C[C@@H]3O[C@H]1C[C@H](N)[C@H](O)[C@H](C)O1 [Doxorubicin, reference compound]	72.9%	18.1	–	4.58 ± 0.081 µg/mL (≈ 8.43 µM)	52.8%	83 µg/mL (≈ 153 µM)	74%	20.1	4.13 ± 0.054 µg/mL (≈ 7.6 µM)	58.9%	70.9%	60%	58.9%	63.8%	74.8%	32%
